ChEMBL document CHEMBL3885881, “DrugMatrix”

Species: Rattus norvegicus
Assay: DrugMatrix - Regimen: Daily Repeat
Type: toxicity, organism-based, Sprague-Dawley
Set-up: regimen Daily Repeat, gender Male, age 6-8 weeks
Settings: in vivo, po, route oral GAVAGE, vehicle .5 % CMC; for ABSOLUTE BASOPHIL / ABSOLUTE EOSINOPHIL / ABSOLUTE LYMPHOCYTE / ABSOLUTE MONOCYTE / ABSOLUTE SEGMENTED NEUTROPHIL / BASOPHIL / EOSINOPHIL / ERYTHROCYTE COUNT / HEMATOCRIT / HEMOGLOBIN / LEUKOCYTE COUNT / LYMPHOCYTE / MEAN CORPUSCULAR HEMOGLOBIN / MEAN CORPUSCULAR HEMOGLOBIN CONCENTRATION / MEAN CORPUSCULAR VOLUME / MONOCYTE / NEUTROPHIL / NUCLEATED RED BLOOD CELLS / PLATELET COUNT: tissue Blood; for ALANINE AMINOTRANSFERASE / ALBUMIN / ALKALINE PHOSPHATASE / ASPARTATE AMINOTRANSFERASE / BLOOD UREA NITROGEN / CARBON DIOXIDE / CHLORIDE / CHOLESTEROL / CREATINE PHOSPHOKINASE / CREATININE / GLUCOSE / LACTATE DEHYDROGENASE / LIPASE / PHOSPHORUS / POTASSIUM / SODIUM / TOTAL BILIRUBIN / TOTAL PROTEIN / URIC ACID: tissue Plasma
[1] = 50 mg/kg, 120 h, dose level Low, time 5 day
[2] = 2500 mg/kg, 72 h, dose level High, time 3 day
[3] = 2500 mg/kg, 120 h, dose level High, time 5 day

CC(=O)O[C@]1(C(C)=O)CC[C@H]2[C@@H]3C=C(Cl)C4=CC(=O)[C@@H]5C[C@@H]5[C@]4(C)[C@H]3CC[C@@]21C [CYPROTERONE ACETATE]
ABSOLUTE BASOPHIL [1]: 0 CELLS/uL
ABSOLUTE EOSINOPHIL [1]: 24.33 CELLS/uL
ABSOLUTE LYMPHOCYTE [1]: 7928 CELLS/uL
ABSOLUTE MONOCYTE [1]: 144 CELLS/uL
ABSOLUTE SEGMENTED NEUTROPHIL [1]: 637 CELLS/uL
BASOPHIL [1]: 0%
EOSINOPHIL [1]: 0.33%
ERYTHROCYTE COUNT [1]: 5.93 x10E6/uL
HEMATOCRIT [1]: 37.07%
HEMOGLOBIN [1]: 14.9 G/DL
LEUKOCYTE COUNT [1]: 8.73 x10E3/uL
LYMPHOCYTE [1]: 90.33%
MEAN CORPUSCULAR HEMOGLOBIN [1]: 25.13 pg
MEAN CORPUSCULAR HEMOGLOBIN CONCENTRATION [1]: 40.23 G/DL
MEAN CORPUSCULAR VOLUME [1]: 62.47 fL
MONOCYTE [1]: 1.67%
NEUTROPHIL [1]: 7.67%
NUCLEATED RED BLOOD CELLS [1]: 0 /100WBC
PLATELET COUNT [1]: 1115.67 x10E3/uL
ALANINE AMINOTRANSFERASE [1]: 68.33 u/L
ALBUMIN [1]: 4.4 G/DL
ALKALINE PHOSPHATASE [1]: 339 u/L
ASPARTATE AMINOTRANSFERASE [1]: 88 u/L
BLOOD UREA NITROGEN [1]: 15.67 mg/dL
CARBON DIOXIDE [1]: 30.33 mmol/L
CHLORIDE [1]: 101 MEQ/L
CHOLESTEROL [1]: 79 mg/dL
CREATINE PHOSPHOKINASE [1]: 291 u/L
CREATININE [1]: 0.18 mg/dL
GLUCOSE [1]: 165 mg/dL
LACTATE DEHYDROGENASE [1]: 169 u/L
LIPASE [1]: 11 u/L
PHOSPHORUS [1]: 12.3 mg/dL
POTASSIUM [1]: 5.54 MEQ/L
SODIUM [1]: 144.17 MEQ/L
TOTAL BILIRUBIN [1]: 0.13 mg/dL
TOTAL PROTEIN [1]: 6.5 G/DL
URIC ACID [1]: 1.33 mg/dL
ABSOLUTE BASOPHIL [2]: 0 CELLS/uL
ABSOLUTE EOSINOPHIL [2]: 156.67 CELLS/uL
ABSOLUTE LYMPHOCYTE [2]: 10772 CELLS/uL
ABSOLUTE MONOCYTE [2]: 88.67 CELLS/uL
ABSOLUTE SEGMENTED NEUTROPHIL [2]: 1249.33 CELLS/uL
BASOPHIL [2]: 0%
EOSINOPHIL [2]: 1.33%
ERYTHROCYTE COUNT [2]: 5.59 x10E6/uL
HEMATOCRIT [2]: 36.7%
HEMOGLOBIN [2]: 14.03 G/DL
LEUKOCYTE COUNT [2]: 12.27 x10E3/uL
LYMPHOCYTE [2]: 88%
MEAN CORPUSCULAR HEMOGLOBIN [2]: 25.07 pg
MEAN CORPUSCULAR HEMOGLOBIN CONCENTRATION [2]: 38.23 G/DL
MEAN CORPUSCULAR VOLUME [2]: 65.63 fL
MONOCYTE [2]: 0.67%
NEUTROPHIL [2]: 10%
NUCLEATED RED BLOOD CELLS [2]: 0.33 /100WBC
PLATELET COUNT [2]: 1080.33 x10E3/uL
ALANINE AMINOTRANSFERASE [2]: 69.67 u/L
ALBUMIN [2]: 4.07 G/DL
ALKALINE PHOSPHATASE [2]: 424.67 u/L
ASPARTATE AMINOTRANSFERASE [2]: 99.67 u/L
BLOOD UREA NITROGEN [2]: 14.33 mg/dL
CARBON DIOXIDE [2]: 30 mmol/L
CHLORIDE [2]: 100.67 MEQ/L
CHOLESTEROL [2]: 113.33 mg/dL
CREATINE PHOSPHOKINASE [2]: 639.67 u/L
CREATININE [2]: 0.2 mg/dL
GLUCOSE [2]: 151.33 mg/dL
LACTATE DEHYDROGENASE [2]: 603.33 u/L
LIPASE [2]: 12.67 u/L
PHOSPHORUS [2]: 11.2 mg/dL
POTASSIUM [2]: 6.3 MEQ/L
SODIUM [2]: 141.73 MEQ/L
TOTAL BILIRUBIN [2]: 0.13 mg/dL
TOTAL PROTEIN [2]: 6 G/DL
URIC ACID [2]: 0.83 mg/dL
ABSOLUTE BASOPHIL [3]: 0 CELLS/uL
ABSOLUTE EOSINOPHIL [3]: 62.33 CELLS/uL
ABSOLUTE LYMPHOCYTE [3]: 8852.33 CELLS/uL
ABSOLUTE MONOCYTE [3]: 146.33 CELLS/uL
ABSOLUTE SEGMENTED NEUTROPHIL [3]: 2339 CELLS/uL
BASOPHIL [3]: 0%
EOSINOPHIL [3]: 0.67%
ERYTHROCYTE COUNT [3]: 5.55 x10E6/uL
HEMATOCRIT [3]: 34.3%
HEMOGLOBIN [3]: 13.77 G/DL
LEUKOCYTE COUNT [3]: 11.4 x10E3/uL
LYMPHOCYTE [3]: 80%
MEAN CORPUSCULAR HEMOGLOBIN [3]: 24.8 pg
MEAN CORPUSCULAR HEMOGLOBIN CONCENTRATION [3]: 40.13 G/DL
MEAN CORPUSCULAR VOLUME [3]: 61.87 fL
MONOCYTE [3]: 1.33%
NEUTROPHIL [3]: 18%
NUCLEATED RED BLOOD CELLS [3]: 0.33 /100WBC
PLATELET COUNT [3]: 1381.33 x10E3/uL
ALANINE AMINOTRANSFERASE [3]: 94 u/L
ALBUMIN [3]: 4.3 G/DL
ALKALINE PHOSPHATASE [3]: 317.67 u/L
ASPARTATE AMINOTRANSFERASE [3]: 101.67 u/L
BLOOD UREA NITROGEN [3]: 21.33 mg/dL
CARBON DIOXIDE [3]: 23.67 mmol/L
CHLORIDE [3]: 98.67 MEQ/L
CHOLESTEROL [3]: 98.67 mg/dL
CREATINE PHOSPHOKINASE [3]: 467 u/L
CREATININE [3]: 0.27 mg/dL
GLUCOSE [3]: 223 mg/dL
LACTATE DEHYDROGENASE [3]: 496 u/L
LIPASE [3]: 10.67 u/L
PHOSPHORUS [3]: 12.8 mg/dL
POTASSIUM [3]: 6.34 MEQ/L
SODIUM [3]: 142.07 MEQ/L
TOTAL BILIRUBIN [3]: 0.17 mg/dL
TOTAL PROTEIN [3]: 7 G/DL
URIC ACID [3]: 2.1 mg/dL
